Test results as given in patent US9421281B2, “Target vector with activable imaging function” (Centre National de la Recherche Scientifique, priority 2005, dated 2016).

Assays:
[1] = system: subcutaneous tumor of IGROV-1 type; experiment: Optical imaging of tumors in the nude mouse (fluorescence reflectance imaging); format: in vivo, nude mice; conditions: 10 nmol/mouse i.v.; for evolution of the signal in the tumor over time / signal in the tumor compared with the control probe: IGROV-1 tumor, FIG. 12A; for contrast, ratio of signal between the tumor and the skin: compared with RAFT-(cRGD)4-Cy5-Cys-S—S-cysteine, FIG. 12B
Method: FIG. 12: Results of the in vivo injection of the molecular probes RAFT-(cRGD)4-Cy5-Cys-S—S-Cys=Cy5, RAFT-(cRGD)4-Cy5-Cys-S—S-Cys-QSY21, and RAFT-(cRGD)4-Cy5-Cys-S—S-Cys (control) in nude mice, imaged using a fluorescence imaging device (excitation 633 nm; detection λ>670 nm). Intravenous injection of 10 nmol of probe/mouse, in 100 μL of PBS (pH 7.1, 9.5 mM), into the tail of anesthetized mice carrying, on the back, a subcutaneous tumor of IGROV-1 type ([…] injected subcutaneously 2 weeks before imaging). A. Fluorescence intensity measured in the tumor over time. B. Ratio of the fluorescence intensities measured in the tumor and in the skin over time. C. Images obtained 10 minutes and 5 h after injection for the various molecular probes.
The mice used are female nude mice 6 to 8 weeks old, maintained under pathogen-free conditions. The IGROV-1 cells (human ovarian cancer model) are cultured in an RPMI 1640 culture medium containing 1% of glutamine, 10% of FCS, 50 U/ml of penicillin and 50 μg/ml of streptomycin. The cells are maintained at 37° C. under a humid atmosphere with 5% of CO2. 10×10^6 cells are injected subcutaneously into the back of the mice 2 weeks before injection of the molecular vectors RAFT-(cRGD)4-Cy5-Cys-S—S-Cys-Cy5 and RAFT-(cRGD)4-Cy5-Cys-S—S-Cys-QSY21. The latter are injected into the tail intravenously, in 100 μl of PBS (pH 7.1, 9.5 mM), at doses of 10 nmol/mouse.
The anesthetized mice are imaged with a fluorescence reflectance imaging (FRI) device, comprising as excitation source a crown of LEDs equipped with interference filters, emitting at 633 nm (illumination power 50 μW·cm^−2). The images are collected after filtration with an RG665 colored filter of optical density>5 at the excitation wavelength by means of a CCD camera (Orca BTL, Hamamatsu), with an exposure time of 100 ms. The signals are quantified using image processing software.

[2] = Chemical cleavage of the disulfide bridge with 2-mercaptoethanol (absorption and fluorescence); format: physicochemical; conditions: for fluorescence after chemical cleavage of the S—S disulfide bridge: imaging function grafted onto RAFT-(cRGD)4, 10 mM PBS, pH 7.2, [2-MCE]=85 mM; for fluorescence of the Cy5 fluorophore(s) before cleavage of the disulfide bridge: imaging function grafted onto RAFT-(cRGD)4, 0.5 or 0.10 μM in 10 mM PBS, pH 7.2
Source text: FIG. 5: Absorption and fluorescence of the imaging function Cy5-Cys-S—S-Cys-Cy5 before and after chemical cleavage of the disulfide bridge with 2-mercaptoethanol (2-MCE). A. Absorption spectrum and evolution thereof over time during the addition of 2-MCE. […] C. Evolution over time of the fluorescence of the imaging function during the addition of 2-MCE. […] FIG. 6: Absorption and fluorescence of the imaging function Cy5-Cys-S—S-Cys-QSY21 before and after chemical cleavage of the disulfide bridge with 2-mercaptoethanol (2-MCE). A. Absorption spectra and evolution thereof over time during the addition of 2-MCE. […] C. Evolution over time of the fluorescence of the imaging function during the addition of 2-MCE. […] FIG. 10: Absorption and fluorescence of the imaging function Cy5-Cys-S—S-Cys-Cy5 grafted onto RAFT-(cRGD)4, before and after chemical cleavage of the disulfide bridge with 2-mercaptoethanol (2-MCE). A. Absorption spectrum and evolution thereof over time during the addition of 2-MCE. […] C. Evolution over time of the fluorescence of the imaging function during the addition of 2-MCE. […] FIG. 11: Absorption and fluorescence of the imaging function Cy5-Cys-S—S-Cys-QSY21 grafted onto RAFT-(cRGD)4, before and after chemical cleavage of the disulfide bridge with 2-mercaptoethanol (2-MCE). A. Absorption spectrum and evolution thereof over time during the addition of 2-MCE. […] C. Evolution over time of the fluorescence of the imaging function during the addition of 2-MCE.

[3] = system: Hekβ3 cells; experiment: Penetration into the cells, laser scanning confocal microscopy; format: cell-based; conditions: 1 to 2 hours of incubation
Method: FIG. 13: Penetration of the labels into the cells, imaged by laser scanning confocal microscopy. Hekβ3 cells after 1 to 2 hours incubation in the presence of a negative control RAFT(4cRAD)-Cy5 (column 1), or in the presence of RAFT(4cRGD)-Cy5 (column 2), RAFT(4cRGD)-Cy5-Cys-S—S-Cys-Cy5 (column 3), or RAFT(4cRGD)-Cy5-Cys-S—S-Cys-quencher (column 4). The penetration into the cells of the probes RAFT-(cRGD)4-Cy5, RAFT-(cRGD)4-Cy5-Cys-S—S-Cys-Cy5 and RAFT-(cRGD)4-Cy5-Cys-S—S-Cys-QSY21 was observed on Hekβ3 cells, after 1 to 2 hours of incubation.

## cysteine(Cy5)-S—S-cysteineRAFTc[RGDfK-]4 [RAFT-(cRGD)4-Cy5-Cys-S—S-cysteine, reference compound]
[1]
  evolution of the signal in the tumor over time: decreases very rapidly over time

## cysteine(Cy5)-S—S-cysteine(QSY21)RAFTc[RGDfK-]4 [RAFT-(cRGD)4-Cy5-Cys-S—S-Cys-QSY21]
[2]
  fluorescence after chemical cleavage of the S—S disulfide bridge: completely released
  fluorescence of the Cy5 fluorophore(s) before cleavage of the disulfide bridge: initially self-quenched
[1]
  evolution of the signal in the tumor over time: gradual appearance of the signal in the tumor
  signal in the tumor compared with the control probe: more signal in the tumor
  contrast, ratio of signal between the tumor and the skin: increases
[3]
  penetration into the cells (location of fluorescence): clear fluorescence inside the cells
[3]; listed as RAFT-Cy5-Cys-S—S-Cys-Q
  penetration into the cells (location of fluorescence): penetrates into the cells better

## cysteine(Cy5)-S—S-cysteine(Cy5)RAFTc[RGDfK-]4 [RAFT-(cRGD)4-Cy5-Cys-S—S-Cys-Cy5]
[2]
  fluorescence after chemical cleavage of the S—S disulfide bridge: completely released
  fluorescence of the Cy5 fluorophore(s) before cleavage of the disulfide bridge: initially self-quenched
[1]
  evolution of the signal in the tumor over time: gradual appearance of the signal in the tumor
  signal in the tumor compared with the control probe: more signal in the tumor
  contrast, ratio of signal between the tumor and the skin: increases
[3]
  penetration into the cells (location of fluorescence): does not enter well
